PubChem BioAssay (NCI)
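Each compound was tested at five concentrations against cells in 96-well plates for 48 hours. Abbreviation: GI50, concentration required for 50% inhibition of growth. The concentration for full growth arrest is given as TGI.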

Legend:
Assay in all cases: NCI-60 cell line screen, 48 h
OVCAR-5 ovarian = test system: OVCAR-5 ovarian
IGROV1 ovarian = test system: IGROV1 ovarian
SNB-75 CNS = test system: SNB-75 CNS
SF-268 CNS = test system: SF-268 CNS
SK-MEL-2 melanoma = test system: SK-MEL-2 melanoma
SNB-19 CNS = test system: SNB-19 CNS
UACC-257 melanoma = test system: UACC-257 melanoma
HCT-116 colon = test system: HCT-116 colon
SW-620 colon = test system: SW-620 colon
MDA-MB-435 = test system: MDA-MB-435
HT29 colon = test system: HT29 colon
NCI-H460 lung = test system: NCI-H460 lung
A549 NSCLC = test system: A549 NSCLC
ACHN renal = test system: ACHN renal
EKVX NSCLC = test system: EKVX NSCLC
DU-145 prostate = test system: DU-145 prostate
BT-549 breast = test system: BT-549 breast
NCI-H23 lung = test system: NCI-H23 lung
TK-10 renal = test system: TK-10 renal
HS 578T breast = test system: HS 578T breast
SF-539 CNS = test system: SF-539 CNS
M14 melanoma = test system: M14 melanoma
SK-MEL-5 melanoma = test system: SK-MEL-5 melanoma
HOP-62 NSCLC = test system: HOP-62 NSCLC
RPMI-8226 leukemia = test system: RPMI-8226 leukemia

## Cn1cc(-c2csc(-c3c[nH]c4ccccc34)n2)c2cnccc21
OVCAR-5 ovarian
  GI50: 2.62 µM
  TGI: 5.52 µM
IGROV1 ovarian
  GI50: 1.73 µM
  TGI: 3.55 µM
SNB-75 CNS
  GI50: 12.9 µM
  TGI: 26.2 µM
SF-268 CNS
  GI50: 1.97 µM
  TGI: 3.93 µM
SK-MEL-2 melanoma
  GI50: 2.1 µM
  TGI: 3.81 µM
SNB-19 CNS
  GI50: 2.07 µM
  TGI: 4.11 µM
UACC-257 melanoma
  GI50: 2 µM
  TGI: 3.72 µM
HCT-116 colon
  GI50: 1.73 µM
  TGI: 3.22 µM
SW-620 colon
  GI50: 1.98 µM
  TGI: 3.69 µM
MDA-MB-435
  GI50: 1.87 µM
  TGI: 3.43 µM
HT29 colon
  GI50: 2.01 µM
  TGI: 4.26 µM
NCI-H460 lung
  GI50: 1.85 µM
  TGI: 3.61 µM
A549 NSCLC
  GI50: 2.47 µM
  TGI: 5.88 µM
ACHN renal
  GI50: 1.93 µM
  TGI: 3.77 µM
EKVX NSCLC
  GI50: 1.92 µM
  TGI: 4.61 µM
DU-145 prostate
  GI50: 2.24 µM
  TGI: 5.65 µM
BT-549 breast
  GI50: 1.78 µM
  TGI: 3.59 µM
NCI-H23 lung
  GI50: 1.77 µM
  TGI: 3.97 µM
TK-10 renal
  GI50: 2.74 µM
  TGI: 5.1 µM
HS 578T breast
  GI50: 2.21 µM
  TGI: 4.72 µM
SF-539 CNS
  GI50: 1.79 µM
  TGI: 3.29 µM
M14 melanoma
  GI50: 1.84 µM
  TGI: 3.46 µM
SK-MEL-5 melanoma
  GI50: 1.76 µM
  TGI: 3.18 µM
HOP-62 NSCLC
  GI50: 1.79 µM
  TGI: 3.45 µM
RPMI-8226 leukemia
  GI50: 2.14 µM
  TGI: 5 µM
